In patent US9051562B2, “Polypeptides isolated from brevibacterium aurantiacum and their use for the treatment of cancer” (Institut National de la Santé et de la Recherche Médicale …, priority 2011, dated 2015):

Legend:
[1] = molecular target: Brevibacterium aurantiacum (ATCC 9175; formerly B. linens) methionine gamma-lyase MGL-BL929, recombinant, SEQ ID NO: 1 (Brevibacterium aurantiacum, UniProt A0A2H1K3G9); settings: for activity of the enzyme towards the substrate (in words): 25 mM of substrate; for activity of the enzyme towards the substrate (in words) / Vmax: pH 7.5, 25° C., 10 min; for Vmax: 100 mM K*PO4, 0.01 mM PLP
[2] = system: HT29MTX cells; test: Growth inhibition of HT29MTX cells (Trypan blue dye exclusion), resistance to methotrexate; assay type: cell-based, human; settings: 1 μM methotrexate
Text: Seven human tumor cell lines were used to determine the cellular effects of MGL-BL929. These comprise five adherent solid tumor-derived cell lines (including the colorectal carcinoma cell line HT29, two stable variants of HT29 selected for their high levels of resistance to methotrexate (HT29MTX), and to fluorouracil (HT29FUra), the ovarian carcinoma cell line SKOV3, and the hepatoblastoma-derived cell line (HepG2), and 2 non-adherent tumor cell lines (including the T-cell lymphoma cell line Jurkat, and the acute lymphocytic leukemia cell line Reh). Similarly, human non-tumor skin fibroblasts (CDGII) were exposed to MGL-BL929 at various concentrations in order to explore selectivity of MGL-BL929 towards cancer cells.
The cells lines were thawed from mycoplasma-free frozen stocks and were controlled for contamination. Cells were maintained in cell culture medium (RPMI 1640 or DMEM according to the growth requirements of each cell line), supplemented with 10% FBS and antibiotics (streptomycin, 50 μg/mL, and penicillin, 50 U/mL) at 37° in an atmosphere containing 5% CO2. Cells were exposed in 12 well-cell plates to the purified recombinant MGL-BL929 at a concentration range from 0.05 U/mL to 5 U/mL, and were harvested 24 hr., 48 hr., 72 hr., and 96 hr. from start of the exposure. Cell viability was measured with the Trypan blue dye exclusion test in Malassez chambers.

SMILES	activity of the enzyme towards the substrate (in words) [1]	Vmax [1]	Affinity relative to L-methionine (fold greater) ([1]; L-homocysteine compared with L-methionine)	resistance of the cells to methotrexate (in words) [2]
CSCC[C@@H](N)C(=O)O [D-methionine]	no activity	0 μmol · min^−1 · m^−1		
N[C@@H](CCSC[C@H](N)C(=O)O)C(=O)O [L-Cystathionine, L-cystathionine]	no activity	0 μmol · min^−1 · m^−1		
N[C@@H](CS)C(=O)O [L-Cysteine, L-cysteine]	no activity	0 μmol · min^−1 · m^−1		
N[C@@H](CCS)C(=O)O [L-Homocysteine, L-homocysteine]		27.7 ± 5.7 μmol · min^−1 · m^−1	7.3 fold	
CSCC[C@H](N)C(=O)O [L-Methionine, L-methionine]		5.77 ± 1.4 μmol · min^−1 · m^−1		
Nc1ncnc2c1ncn2[C@@H]1O[C@H](CSCC[C@H](N)C(=O)O)[C@@H](O)[C@H]1O [S-Adenosyl L-homocysteine]	no activity	0 μmol · min^−1 · m^−1		
CN(Cc1cnc2nc(N)nc(N)c2n1)c1ccc(C(=O)N[C@@H](CCC(=O)O)C(=O)O)cc1 [methotrexate]				fully resistant
